This note sets out measurements from patent US9457033B2, “Steroid alkaloids and uses thereof as antimicrobial agents against electron transport-deficient microbes and as potentiators for antimicrobial agents against pathogenic bacteria” (priority 2011, dated 2016).

In brackets after ≈: the same amount, converted by molar mass.

In assay [1] the test system is S. aureus SHY97-3906. As to the kind of experiment: MIC, microdilution in CAMHB 24 h. Format: cell-based, Staphylococcus aureus. The note with it: SHY97-3906; Cow (mastitis).
For assay [2], the system named is S. aureus Mu50. As to the kind of experiment: MIC, microdilution in CAMHB 24 h. As to conditions: Mu50; Human (SSTI); MRSA, VISA. The class given is cell-based, Staphylococcus aureus. Background: In broth dilution the organism is exposed to a series of concentrations in liquid medium.
Assay [3] concerns S. aureus CF6B-L. As to the kind of experiment: MIC, microdilution in CAMHB 24 h. Format: cell-based, Staphylococcus aureus. The note with it: CF6B-L; Human (CF lungs).
Assay [4] concerns S. aureus Newbould. As to the kind of experiment: MIC, microdilution in CAMHB 24 h. The class given is cell-based, Staphylococcus aureus. As to conditions: Newbould; Cow (mastitis).
For assay [5], the system named is S. aureus Newman. As to the kind of experiment: MIC, microdilution in CAMHB 24 h. Format: cell-based, Staphylococcus aureus. As to conditions: Newman; Human (Osteo).
In assay [6] the test system is S. aureus CF1A-L. As to the kind of experiment: MIC, microdilution in CAMHB 24 h. Format: cell-based, Staphylococcus aureus. As to conditions: CF1A-L; Human (CF lungs).
Assay [7] has as its system S. aureus CF35A-L. As to the kind of experiment: MIC, microdilution in CAMHB 24 h. Format: cell-based, Staphylococcus aureus. The note with it: CF35A-L; Human (CF lungs); MRSA.
Assay [8] deals with S. aureus CF9A-L. As to the kind of experiment: MIC, microdilution in CAMHB 24 h. Format: cell-based, Staphylococcus aureus. The note with it: CF9A-L; Human (CF lungs); MRSA.
The test system of assay [9] is S. aureus 8325-4. As to the kind of experiment: MIC, microdilution in CAMHB 24 h. The class given is cell-based, Staphylococcus aureus. As to conditions: 8325-4; Laboratory strain.
The test system of assay [10] is S. aureus ATCC 43300. As to the kind of experiment: MIC, microdilution in CAMHB 24 h. Format: cell-based, Staphylococcus aureus. As to conditions: ATCC 43300; Human (HA); MRSA.
Assay [11] relates to S. aureus MA078038. As to the kind of experiment: MIC, microdilution in CAMHB 24 h. As to conditions: MA078038; Human (CA); MRSA. The class given is cell-based, Staphylococcus aureus.
Assay [12] has as its system S. aureus ATCC BAA-41. As to the kind of experiment: MIC, microdilution in CAMHB 24 h. The class given is cell-based, Staphylococcus aureus. As to conditions: ATCC BAA-41; Human (HA); MRSA.
In assay [13] the test system is S. aureus CF7A-L. As to the kind of experiment: MIC, microdilution in CAMHB 24 h. The class given is cell-based, Staphylococcus aureus. The note with it: CF7A-L; Human (CF lungs); MRSA.
Assay [14] concerns S. aureus N315. As to the kind of experiment: microbe, parasite or virus in culture. The note with it: N315; Human (HA); MRSA. Format: cell-based, Staphylococcus aureus.
In assay [15] the test system is S. aureus MRSA COL. As to the kind of experiment: MIC, microdilution in CAMHB 24 h. Format: cell-based, Staphylococcus aureus. The note with it: MRSA COL; Human (SSTI).
The test system of assay [16] is S. aureus CF07-L. As to the kind of experiment: MIC, microdilution in CAMHB 24 h. The class given is cell-based, Staphylococcus aureus. As to conditions: CF07-L; Human (CF lungs).
For assay [17], the system named is S. aureus CF8E-L. As to the kind of experiment: MIC, microdilution in CAMHB 24 h. The note with it: CF8E-L; Human (CF lungs). Format: cell-based, Staphylococcus aureus.
Assay [18] concerns S. aureus CF2A-L. As to the kind of experiment: MIC, microdilution in CAMHB 24 h. The class given is cell-based. As to conditions: CF2A-L; Human (CF lungs).
Assay [19] relates to S. aureus CF4B-L. As to the kind of experiment: MIC, microdilution in CAMHB 24 h. Format: cell-based, Staphylococcus aureus. As to conditions: CF4B-L; Human (CF lungs).
In assay [20] the test system is S. aureus Sa220c. As to the kind of experiment: MIC, microdilution in CAMHB 24 h. The note with it: Sa220c; Human (SSTI); MRSA. Format: cell-based, Staphylococcus aureus.
Assay [21] deals with S. aureus ATCC 29213. As to the kind of experiment: MIC, microdilution in CAMHB 24 h, with or without tomatidine/compound. Format: cell-based, Staphylococcus aureus. The note with it: for MIC −TO: absence of tomatidine; for MIC +TO: presence of tomatidine at 8 μg/ml; for Fold (−TO/+TO): tomatidine at 8 μg/ml; for Fold (MIC of GEN alone/MIC of GEN with Cpd): gentamicin with 8 μg/ml of Cpd, provided in categories of synergy (1-2 no or mild; 4-16 moderate or strong).

Assay [22] concerns S. aureus Sa228c. As to the kind of experiment: MIC, microdilution in CAMHB 24 h. Format: cell-based, Staphylococcus aureus. As to conditions: Sa228c; Human (SSTI); MRSA.
Assay [23] deals with S. aureus Newbould (normal strain). As to the kind of experiment: MIC, microdilution in BHI 48 h. The class given is cell-based, Staphylococcus aureus. The note with it: Newbould, normal strain.
Assay [24] deals with S. aureus CF1A-L (normal strain). As to the kind of experiment: MIC, microdilution in BHI 48 h. Format: cell-based, Staphylococcus aureus. The note with it: CF1A-L, normal strain.
Assay [25] concerns S. aureus CF07-L (normal strain). As to the kind of experiment: MIC, microdilution in BHI 48 h (Examples 1, 3). Format: cell-based, Staphylococcus aureus.
Assay [26] concerns S. aureus ATCC 29213. As to the kind of experiment: MIC, microdilution in BHI 48 h (Examples 1, 3). Format: cell-based, Staphylococcus aureus.
Assay [27] relates to S. aureus SCV NewbouldΔhemB. As to the kind of experiment: MIC, microdilution in BHI 48 h. Format: cell-based, Staphylococcus aureus. The note with it: NewbouldΔhemB, SCV.
In assay [28] the test system is S. aureus SCV strain NewbouldΔhemB. As to the kind of experiment: MIC of compounds against SCV. The class given is cell-based, Staphylococcus aureus. As to conditions: for MIC: Staphylococcus aureus, read-out: MIC of Cpd against SCV hemB.
[29] abbreviates: Staphylococcus aureus, ATCC29213, compound alone, read-out: MIC of Cpd against ATCC29213.

In the case of `CN(C)[C@@H]1C(=O)C(C(N)=O)=C(O)[C@@]2(O)C(=O)C3=C(O)c4c(O)cccc4[C@@](C)(O)[C@H]3C[C@@H]12` [Tetracycline, tetracycline], the MIC in assay [1] was 0.25 to 0.5 µg/mL; in assay [2], >16 (R) μg/ml; in [3], 0.25 µg/mL (≈ 0.563 µM); in [4] it was 0.25 to 0.5 µg/mL; in assay [5], 0.25 to 0.5 µg/mL; in assay [6], 0.25 µg/mL (≈ 0.563 µM). The MIC in assay [7] is 0.5 µg/mL (≈ 1.13 µM); in assay [8], 0.25 to 0.5 µg/mL; in assay [9], 0.25 µg/mL (≈ 0.563 µM); in assay [10] it was 0.5 µg/mL (≈ 1.13 µM); in assay [11], 0.5 µg/mL (≈ 1.13 µM); in assay [12], 0.5 µg/mL (≈ 1.13 µM). Further, the MIC in assay [13] was 0.25 to 0.5 µg/mL; in assay [14] it was 0.5 µg/mL (≈ 1.13 µM); in assay [15], 1 to 2 µg/mL; in assay [16], 0.5 µg/mL (≈ 1.13 µM); in assay [17] it was 0.25 to 0.5 µg/mL; in [18], 2 µg/mL (≈ 4.5 µM). Besides, the MIC in assay [19] is 0.25 µg/mL (≈ 0.563 µM); in [20] it was 0.5 µg/mL (≈ 1.13 µM); in [21] (ATCC 29213, Human (SSTI)) it was 0.25 to 0.5 µg/mL; in assay [22], >16 (R) μg/ml. Also, the “MIC −TO” value in assay [21] (ATCC 29213) was 0.25 to 0.5 µg/mL. Also, the “MIC +TO” value in assay [21] (ATCC 29213) was 0.25 to 0.5 µg/mL. Further, in assay [21] (ATCC 29213), the “Fold (−TO/+TO)” value is on record as 1 fold.
Take `Cc1onc(-c2ccccc2)c1C(=O)N[C@@H]1C(=O)N2[C@@H]1SC(C)(C)[C@@H]2C(=O)O` [Oxacillin, oxacillin]: the MIC in [1] is 0.12 to 0.25 µg/mL; in assay [2], >64 (R) μg/ml; in [3], 0.25 to 1 µg/mL; in [23] it was 0.06 to 0.12 µg/mL; in [4], 0.12 µg/mL (≈ 0.299 µM); in [5] it was 0.5 to 1 µg/mL. Besides, the MIC in [6] is 0.25 to 0.5 µg/mL; in [24] it was 0.25 µg/mL (≈ 0.623 µM); in assay [7], >64 (R) μg/ml; in [8] it was >64 (R) μg/ml; in [9], 0.12 µg/mL (≈ 0.299 µM); in assay [10], 16-32 (R) μg/ml. Moreover, the MIC is 64 (R) μg/ml in assay [11]; >64 (R) μg/ml in assay [12]; 0.06 to 0.12 µg/mL in assay [25] (CF07-L + HQNO at 20 μg/ml); 0.06 to 0.12 µg/mL in assay [25] (CF07-L, normal strain); 0.06 to 0.12 µg/mL in assay [25] (CF07-L, without HQNO); >64 (R) μg/ml in assay [13]. For the same compound, the MIC in assay [26] (ATCC 29213 + HQNO at 20 μg/ml) was 0.12 µg/mL; in assay [26] (ATCC 29213, without HQNO) it was 0.12 to 0.25 µg/mL; in assay [26] (ATCC 29213 in BHI) it was 0.12 to 0.25 µg/mL; in assay [26] (ATCC 29213 in MHBCA) it was 0.12 to 0.5 µg/mL; in assay [14], 8 (R) μg/ml; in assay [15], >64 (R) μg/ml. For the same compound, the MIC in assay [16] was 0.12 to 0.25 µg/mL; in [17], 0.125 µg/mL (≈ 0.311 µM); in [18], 0.25 µg/mL (≈ 0.623 µM); in [19] it was 0.5 µg/mL (≈ 1.25 µM); in assay [20], 16-32 (R) μg/ml; in assay [27] it was 0.03 to 0.06 µg/mL. Also, the MIC in [21] (ATCC 29213, Human (SSTI)) is 0.25 µg/mL (≈ 0.623 µM); in [22], >64 (R) μg/ml. Moreover, in assay [21] (ATCC 29213), the “MIC −TO” value came to 0.25 µg/mL (≈ 0.623 µM). Also, the “MIC +TO” value in assay [21] (ATCC 29213) came out at 0.25 µg/mL. Also, the “Fold (−TO/+TO)” value in [21] (ATCC 29213) came out at 1 fold.
With `C[C@H]1CC[C@@]2(NC1)O[C@H]1C[C@H]3[C@@H]4CC[C@H]5C[C@H](O)CC[C@]5(C)[C@H]4CC[C@]3(C)[C@H]1[C@@H]2C.Cl` [Compound 23, 3α-hydroxytomatidine hydrochloride Salt], in assay [28] (provided in categories (strong ≦ 0.5; moderate 4-8; low > 8)), the “MIC of Cpd against SCV hemB” value lay in the range of 4 to 8 µg/mL. Besides, the “MIC of Cpd against ATCC29213” value in assay [21] (compound alone) was greater than 16 µg/mL. For the same compound, the “Fold (MIC of GEN alone/MIC of GEN with Cpd)” value in [21] is given as 4-16 fold.
As to `CC(NCCCN(C)C)[C@H]1CC[C@H]2[C@@H]3CC[C@H]4C[C@@H](O)CC[C@]4(C)[C@H]3CC[C@]12C` (stereo partly drawn) [Compound 32, pregnan-3β-ol-20-((N,N-dimethylamino)propyl)amine], the values for the MIC in [28] and in assay [21] (setting [29]) were greater than 8 µg/mL and greater than 16 µg/mL, respectively. Besides, in assay [21], the “Fold (MIC of GEN alone/MIC of GEN with Cpd)” value is on record as 4-16 fold.
On to `CC(N)[C@H]1CC[C@H]2[C@@H]3CC[C@H]4C[C@@H](O)CC[C@]4(C)[C@H]3CC[C@]12C` (stereo partly drawn) [Compound 30a, pregnan-3β-ol-20-amine], for which the MIC in [28] was greater than 8 µg/mL; in assay [21] (setting [29]) it was greater than 16 µg/mL. Further, in assay [21], the “Fold (MIC of GEN alone/MIC of GEN with Cpd)” value is 1-2 fold.
